Measurements: patent US20040167097A1, “EPO D + 5-FU/gemcitabine” (priority 2002, published 2004)
Where two headings read alike, the source gives them in different places.

Tests used:
thymidine phosphorylase = assay: Production of thymidine phosphorylase in tumor cells; assay type: cell-based; conditions: some tumor cells; preliminary experiments
Description: The data from each of the combination analyses was analyzed using [sequence] software (Biosoft, Cambridge, UK), which determined a combination index (“CI”) value for each combination in each of the three cell lines examined.

[1] = Pharmacokinetics after infusion; assay type: in vivo
Description: In general, the pharmacokinetics are favorable. […] This is somewhat higher on average than the values for paclitaxel which are 140±70 l.

tumor = conditions: mice; Chou, et al. 2001; cited from earlier work
[2] = system: paclitaxel-sensitive and paclitaxel-resistant cell lines and xenographs; conditions: cited from earlier work
[3] = comparison value for paclitaxel; cited from earlier work

Row | Compound | production of thymidine phosphorylase (thymidine phosphorylase) | dependence of AUC on dosage ([1]; from 9 to 150 mg/m^2) | dose dependence of pharmacokinetics ([1]; in vivo) | pharmacokinetic parameters, second infusion as compared to first infusion ([1]; in vivo) | half-life, mean value ([1]; infusion) | volume of distribution (Vz) ([1]; infusion) | antitumor effects (tumor) | antitumor efficacy [2] | volume of distribution (Vz) [3]
1 | C/C1=C/C[C@@H](/C(C)=C/c2csc(C)n2)OC(=O)C[C@H](O)C(C)(C)C(=O)[C@H](C)[C@@H](O)[C@@H](C)CCC1 [epothilone D, 12,13-deoxyepothilone B] | upregulate | linear | not dose-dependent | do not change | 9.6 ± 2.2 h | 172 ± 74 L | dramatic antitumor effects | has antitumor efficacy | 
2 | CC(=O)O[C@H]1C(=O)[C@@]2(C)[C@H]([C@H](OC(=O)c3ccccc3)[C@]3(O)C[C@H](OC(=O)[C@H](O)[C@@H](NC(=O)c4ccccc4)c4ccccc4)C(C)=C1C3(C)C)[C@]1(OC(C)=O)CO[C@@H]1C[C@@H]2O [paclitaxel] |  |  |  |  |  |  |  |  | 140 ± 70 L
